The record followed here is patent US20140330170A1, “Method of Quantifying Cancer Treatment” (Exelixis, Inc., priority 2012, published 2014).

The structures appear in SMILES notation.

For the experiment, the system named is metastatic CRPC patients with bone metastases. Kind of experiment: Adaptive phase 2 trial (NCT00940225): case studies of the first three CRPC patients with bone metastases treated with compound 1. Format: in vivo, human. An excerpt: All patients provided informed consent before study screening.
Setting [1] is: Patient 1, best response, 100 mg dose.
[2] abbreviates: Patient 2, best response, 100 mg dose.
The mark [3] stands for this setting: Patient 3, best response, 100 mg dose.
[4] abbreviates: three metastatic CRPC patients, summary.

On to `COc1cc2nccc(Oc3ccc(NC(=O)C4(C(=O)Nc5ccc(F)cc5)CC4)cc3)c2cc1OC` [Compound 1, N-(4-{[6,7-bis(methyloxy)quinolin-4-yl]oxy}phenyl)-N′-(4-fluorophenyl)cyclopropane-1,1-dicarboxamide], for which the PSA (Patient 1, best response, change from baseline 430.4 ng/mL) was −78%; the PSA result (Patient 2, best response, change from baseline 14.7 ng/mL) is “+61%”; the PSA (Patient 3, best response, change from baseline 2.8 ng/mL) is given as −57%. Moreover, the Hemoglobin result is given as “+1.4 g/dL” (Patient 1, best response, change from baseline 13.5 g/dL); “+1.8 g/dL” (Patient 2, best response, change from baseline 13.3 g/dL); “+2.2 g/dL” (Patient 3, best response, change from baseline 10.2 g/dL). The tALP by setting is: (Patient 1, best response, change from baseline 689 U/L) −77%; (Patient 2, best response, change from baseline 108 U/L) −6%; (Patient 3, best response, change from baseline 869 U/L) −77%. In addition, the Pain result is “Improvement” under setting [1], “Pain-free” under setting [2] and “Pain-free” under setting [3]. For the same compound, the Tumor response under setting [1] is given as −41%, the Tumor response under setting [2] is given as −20% and the Tumor response under setting [3] was −51%. Under setting [2], the Bone scan result is “Improvement”. Besides, where the note is “all three patients, during therapy, summary”, the soft tissue lesions result is listed as “evidence of response or stabilization in soft tissue lesions”. Moreover, the bone pain result (all three patients, summary) is on record as “substantial reductions in bone pain”. In addition, the “uptake of radiotracer on bone scan” value (all three patients, summary) is listed as “striking decrease in uptake of radiotracer on bone scan”. In addition, the bone lesions entry under setting [4] is given as “near complete resolution of bone lesions”. Moreover, the “bone pain and total serum alkaline phosphatase (tALP) levels” value under setting [4] was “marked reduction in bone pain and total serum alkaline phosphatase (tALP) levels”. Also, under setting [4], the measurable disease result is reported as “reduction in measurable disease”.
